From patent publication US20080033031A1, “ANTIBIOTIC COMPOUNDS, COMPOSITIONS AND METHODS OF TREATMENT” (priority 2004, published 2008)
≈ marks a conversion by molar mass, not a printed value. Like-named read-outs stand apart in the source and are kept apart here.

Assays:
P. acnes ATCC 11827 = test: MIC against P. acnes ATCC 11827; format: cell-based, Propionibacterium acnes
Description: (§1) The microbiological activity of clindamycin analogs was evaluated by measuring the minimum inhibitory concentrations (MIC) of each compound against Staphylococcus aureus (S. aureus) and Propionibacterium acnes (P. acnes). These two microorganisms were selected, as they are commonly known to be the contributing factors for acne. The compounds evaluated were the following: • a. […] Clindamycin sulfone (CSO2) and its salts • d. Clindamycin phosphate • e.

S. aureus ATCC 29213 = test: MIC against S. aureus ATCC 29213; format: cell-based, Staphylococcus aureus
Description: as §1

[1] = Stability studies with benzoyl peroxide in buffer solutions; format: physicochemical; conditions: 1% analog with 5% BPO, pH 3 buffer, 50° C.
Description: The concentrations of each of the clindamycin analogs and BPO in the mixtures were 1% (w/w) and 5% (w/w), respectively.
Samples were prepared by dissolving each of the clindamycin analogs and suspending the BPO powder in the buffer solutions of different pHs. Samples were placed either at RT or at 50° C. Samples were pulled at time intervals and tested for the appropriate clindamycin analog and pH.
The figures show the plots of the percent remaining (% of initial) of the clindamycin analog versus time. The percent of initial is obtained by normalizing the concentration at each time point to the initial concentration.

S. aureus ATCC 6538 = test: MIC against S. aureus ATCC 6538; format: cell-based; conditions: Staphylococcus aureus, ATCC6538
Description: as §1

P. acnes ATCC 1127 = test: MIC against P. acnes ATCC 1127; format: cell-based, Propionibacterium acnes; conditions: Cutibacterium acnes, ATCC1127
Description: as §1

[2] = Cutibacterium acnes, ATCC11827, read-out: MIC
[3] = Staphylococcus aureus, ATCC29213, read-out: MIC

Structure (SMILES): CCCC1CC(C(=O)NC(C(C)Cl)C2OC(S(C)(=O)=O)C(O)C(O)C2O)N(C)C1.Cl (centres unmarked) [CSO2 HCl]
- MIC (P. acnes ATCC 11827): 0.5 µg/mL
- MIC (S. aureus ATCC 29213): 1 µg/mL

Structure (SMILES): CCCC1CC(C(=O)NC(C(C)Cl)C2OC(S(C)(=O)=O)C(O)C(O)C2O)N(C)C1.O=S(=O)(O)O (centres unmarked) [CSO2 sulfate]
- MIC (P. acnes ATCC 11827): 0.5 µg/mL
- MIC (S. aureus ATCC 29213): 1 µg/mL

Structure (SMILES): CCC[C@@H]1CC(C(=O)NC(C(C)Cl)[C@H]2O[C@H](S(C)(=O)=O)[C@H](O)[C@@H](O)[C@H]2O)N(C)C1 (some centres unmarked) [CSO2, Clindamycin sulfone]
- MIC (P. acnes ATCC 11827; [2]): 0.5 to 1 µg/mL (≈ 1.09 to 2.19 µM)
- MIC (S. aureus ATCC 29213; [3]): 1 to 2 µg/mL (≈ 2.19 to 4.38 µM)
- remained in the solution (% of initial) ([1]; after 8 weeks of storage): about 85%
- remaining in the samples (% of initial) ([1]; after 12 weeks of storage): about 70%

Structure (SMILES): CCC[C@@H]1C[C@@H](C(=O)N[C@@H]([C@H]2O[C@H]([S+](C)[O-])[C@H](O)[C@@H](O)[C@H]2O)[C@H](C)Cl)N(C)C1.Cl (some centres unmarked) [CSO A HCl]
- MIC (P. acnes ATCC 11827): 8 µg/mL
- MIC (S. aureus ATCC 29213): 16 µg/mL

Structure (SMILES): CCCC1CC(C(=O)NC(C(C)Cl)C2OC([S+](C)[O-])C(O)C(O)C2O)N(C)C1.O=C(O)C=CC(=O)O (centres unmarked) [CSO A fumarate]
- MIC (P. acnes ATCC 11827): 8 µg/mL
- MIC (S. aureus ATCC 29213): 16 µg/mL

Structure (SMILES): CCCC1CC(C(=O)NC(C(C)Cl)C2OC([S+](C)[O-])C(O)C(O)C2O)N(C)C1.O=C(O)C=CC(=O)O (centres unmarked) [CSO A maleate]
- MIC (P. acnes ATCC 11827): 16 µg/mL
- MIC (S. aureus ATCC 29213): 16 µg/mL

Structure (SMILES): CCCC1CC(C(=O)NC(C(C)Cl)C2OC([S+](C)[O-])C(O)C(O)C2O)N(C)C1.O=C(O)CCC(=O)O (centres unmarked) [CSO A succinate]
- MIC (P. acnes ATCC 11827): 16 µg/mL
- MIC (S. aureus ATCC 29213): 16 µg/mL

Structure (SMILES): CCCC1CC(C(=O)NC(C(C)Cl)C2OC([S+](C)[O-])C(O)C(O)C2O)N(C)C1.Cl (centres unmarked) [CSO B HCl]
- MIC (P. acnes ATCC 11827): 0.5 µg/mL
- MIC (S. aureus ATCC 29213): 2 µg/mL

Structure (SMILES): CCCC1CC(C(=O)NC(C(C)Cl)C2OC([S+](C)[O-])C(O)C(O)C2O)N(C)C1.O=C(O)c1ccccc1 (centres unmarked) [CSO B benzoate]
- MIC (P. acnes ATCC 11827): 0.5 µg/mL
- MIC (S. aureus ATCC 29213): 2 µg/mL

Structure (SMILES): CCCC1CC(C(=O)NC(C(C)Cl)C2OC([S+](C)[O-])C(O)C(O)C2O)N(C)C1.O=C(O)CC(O)(CC(=O)O)C(=O)O (centres unmarked) [CSO B citrate]
- MIC (P. acnes ATCC 11827): 0.5 µg/mL
- MIC (S. aureus ATCC 29213): 2 µg/mL

Structure (SMILES): CCCC1CC(C(=O)NC(C(C)Cl)C2OC([S+](C)[O-])C(O)C(O)C2O)N(C)C1.O=C(O)C=CC(=O)O (centres unmarked) [CSO B fumarate]
- MIC (P. acnes ATCC 11827): 0.5 µg/mL
- MIC (S. aureus ATCC 29213): 2 µg/mL

Structure (SMILES): CCC[C@@H]1C[C@@H](C(=O)N[C@@H]([C@H]2O[C@H](SC)[C@H](OP(=O)(O)O)[C@@H](O)[C@H]2O)[C@H](C)Cl)N(C)C1 [Clindamycin phosphate USP, Clindamycin phosphate, reference compound]
- MIC (S. aureus ATCC 6538): 200 µg/mL
- MIC (P. acnes ATCC 11827; [2]): 2 to 4 µg/mL
- MIC (S. aureus ATCC 29213; [3]): 16 to 32 µg/mL
- MIC (P. acnes ATCC 1127): 200 µg/mL

Structure (SMILES): CC[C@H]1OC(=O)[C@H](C)[C@@H](O[C@H]2C[C@@](C)(OC)[C@@H](O)[C@H](C)O2)[C@H](C)[C@@H](O[C@@H]2O[C@H](C)C[C@H](N(C)C)[C@H]2O)[C@](C)(O)C[C@@H](C)C(=O)[C@H](C)[C@@H](O)[C@]1(C)O [Erythromycin USP, Erythromycin, reference compound]
- MIC (S. aureus ATCC 6538): < 0.8 µg/mL
- MIC (P. acnes ATCC 11827; [2]): 0.062 µg/mL (≈ 0.0845 µM)
- MIC (S. aureus ATCC 29213; [3]): 0.25 to 0.5 µg/mL (≈ 0.341 to 0.681 µM)
- MIC (P. acnes ATCC 1127): 1.6 µg/mL (≈ 2.18 µM)
